Measurements: patent US9066848B2, “Process for making sterile aripiprazole of desired mean particle size” (Bristol-Myers Squibb Company, priority 2003, dated 2015)

Tests used:
[1] = particle size of crystallized bulk aripiprazole; assay type: physicochemical
[2] = at room temperature; cited from earlier work

- particle size (95% of particles) ([1]; Example 1: impinging jet crystallization with sonication, 2° C. water anti-solvent): < 100 microns
- particle size (95% of particles) ([1]; Example 2: impinging jet crystallization without sonication, 30° C. water anti-solvent): < 100 microns
- particle size ([1]; batch crystallization (comparison)): 100 microns
SMILES: O=C1CCc2ccc(OCCCCN3CCN(c4cccc(Cl)c4Cl)CC3)cc2N1 [Aripiprazole, aripiprazole]
- aqueous solubility [2]: < 1 µg/mL
